Measurements: the NIST ThermoML archive (doi:10.1016/j.jct.2013.04.015)
Numbers after ± are expanded uncertainties.

Key:
[1] = xn = mol fraction of the nth substance listed; settings: for surface tension liquid-gas: Wilhelmy plate method; for mass density: 101 kPa, Liquid, Vibrating tube method
[2] = for surface tension liquid-gas: Wilhelmy plate method; for mass density: 101 kPa, Liquid, Vibrating tube method

Molecule `CCCCn1cc[n+](C)c1.C[C@H](O)C(=O)[O-]` [1-butyl-3-methylimidazolium L-lactate] + CCCCO has a surface tension liquid-gas ([1]; 298.15 K, x1 = 0.01) of 24.18 ± 0.3 mN/m, a surface tension liquid-gas ([1]; 298.15 K, x1 = 0.0297) of 24.53 ± 0.3 mN/m and a surface tension liquid-gas ([1]; 298.15 K, x1 = 0.0482) of 24.7 ± 0.3 mN/m. For the same molecule, the surface tension liquid-gas ([1]; 298.15 K, x1 = 0.0601) was 24.83 ± 0.3 mN/m, the surface tension liquid-gas ([1]; 298.15 K, x1 = 0.0888) was 25.1 ± 0.3 mN/m and the surface tension liquid-gas ([1]; 298.15 K, x1 = 0.1001) was 25.17 ± 0.3 mN/m. The surface tension liquid-gas ([1]; 298.15 K, x1 = 0.1996) was 26.2 ± 0.3 mN/m, the surface tension liquid-gas ([1]; 298.15 K, x1 = 0.3016) was 27.25 ± 0.3 mN/m and the surface tension liquid-gas ([1]; 298.15 K, x1 = 0.4004) was 28.42 ± 0.31 mN/m. It also gave a surface tension liquid-gas ([1]; 298.15 K, x1 = 0.4997) of 29.67 ± 0.31 mN/m, a surface tension liquid-gas ([1]; 298.15 K, x1 = 0.5889) of 31.11 ± 0.32 mN/m and a surface tension liquid-gas ([1]; 298.15 K, x1 = 0.6979) of 32.64 ± 0.32 mN/m. The surface tension liquid-gas ([1]; 298.15 K, x1 = 0.8012) was 34.73 ± 0.33 mN/m, the surface tension liquid-gas ([1]; 298.15 K, x1 = 0.8747) was 36.6 ± 0.34 mN/m and the surface tension liquid-gas ([1]; 298.15 K, x1 = 1) was 42.92 ± 0.37 mN/m. The mass density ([1]; 298.15 K, x1 = 0.0999) was 875.7 ± 0.4 kg/m3, the mass density ([1]; 298.15 K, x1 = 0.1996) was 927.3 ± 0.4 kg/m3 and the mass density ([1]; 298.15 K, x1 = 0.303) was 968.1 ± 0.4 kg/m3. It also gave a mass density ([1]; 298.15 K, x1 = 0.3998) of 997.8 ± 0.4 kg/m3, a mass density ([1]; 298.15 K, x1 = 0.5) of 1024.2 ± 0.4 kg/m3 and a mass density ([1]; 298.15 K, x1 = 0.6002) of 1044.6 ± 0.4 kg/m3. The mass density ([1]; 298.15 K, x1 = 0.7001) was 1060.8 ± 0.4 kg/m3, the mass density ([1]; 298.15 K, x1 = 0.8) was 1076.4 ± 0.4 kg/m3 and the mass density ([1]; 298.15 K, x1 = 0.8999) was 1091.8 ± 0.5 kg/m3. It also gave a mass density ([1]; 298.15 K, x1 = 1) of 1111.2 ± 0.5 kg/m3, a surface tension liquid-gas ([1]; 308.15 K, x1 = 0.0101) of 23.63 ± 0.3 mN/m and a surface tension liquid-gas ([1]; 308.15 K, x1 = 0.0295) of 23.87 ± 0.3 mN/m. It also gave a surface tension liquid-gas ([1]; 308.15 K, x1 = 0.0495) of 24.18 ± 0.3 mN/m, a surface tension liquid-gas ([1]; 308.15 K, x1 = 0.0604) of 24.22 ± 0.3 mN/m and a surface tension liquid-gas ([1]; 308.15 K, x1 = 0.0884) of 24.59 ± 0.3 mN/m. For the same molecule, the surface tension liquid-gas ([1]; 308.15 K, x1 = 0.0999) was 24.67 ± 0.3 mN/m, the surface tension liquid-gas ([1]; 308.15 K, x1 = 0.1999) was 25.68 ± 0.3 mN/m and the surface tension liquid-gas ([1]; 308.15 K, x1 = 0.3008) was 26.81 ± 0.3 mN/m. For the same molecule, the surface tension liquid-gas ([1]; 308.15 K, x1 = 0.3994) was 28.18 ± 0.31 mN/m, the surface tension liquid-gas ([1]; 308.15 K, x1 = 0.4989) was 29.41 ± 0.31 mN/m and the surface tension liquid-gas ([1]; 308.15 K, x1 = 0.5877) was 30.83 ± 0.32 mN/m. The surface tension liquid-gas ([1]; 308.15 K, x1 = 0.695) was 32.5 ± 0.32 mN/m, the surface tension liquid-gas ([1]; 308.15 K, x1 = 0.7981) was 34.33 ± 0.33 mN/m and the surface tension liquid-gas ([1]; 308.15 K, x1 = 0.8807) was 36.48 ± 0.34 mN/m. The surface tension liquid-gas ([1]; 308.15 K, x1 = 1) was 42.37 ± 0.37 mN/m, the mass density ([1]; 308.15 K, x1 = 0.0999) was 868.3 ± 0.4 kg/m3 and the mass density ([1]; 308.15 K, x1 = 0.1996) was 920.3 ± 0.4 kg/m3. The mass density ([1]; 308.15 K, x1 = 0.303) was 960.8 ± 0.4 kg/m3, the mass density ([1]; 308.15 K, x1 = 0.3998) was 990.5 ± 0.4 kg/m3 and the mass density ([1]; 308.15 K, x1 = 0.5) was 1017.2 ± 0.4 kg/m3. For the same molecule, the mass density ([1]; 308.15 K, x1 = 0.6002) was 1037.4 ± 0.4 kg/m3, the mass density ([1]; 308.15 K, x1 = 0.7001) was 1053.9 ± 0.4 kg/m3 and the mass density ([1]; 308.15 K, x1 = 0.8) was 1069 ± 0.4 kg/m3. For the same molecule, the mass density ([1]; 308.15 K, x1 = 0.8999) was 1084.2 ± 0.5 kg/m3, the mass density ([1]; 308.15 K, x1 = 1) was 1104.2 ± 0.5 kg/m3 and the surface tension liquid-gas ([1]; 318.15 K, x1 = 0.0101) was 23.08 ± 0.3 mN/m. For the same molecule, the surface tension liquid-gas ([1]; 318.15 K, x1 = 0.0296) was 23.25 ± 0.3 mN/m, the surface tension liquid-gas ([1]; 318.15 K, x1 = 0.0485) was 23.59 ± 0.3 mN/m and the surface tension liquid-gas ([1]; 318.15 K, x1 = 0.061) was 23.71 ± 0.3 mN/m. The surface tension liquid-gas ([1]; 318.15 K, x1 = 0.0903) was 23.93 ± 0.3 mN/m, the surface tension liquid-gas ([1]; 318.15 K, x1 = 0.1004) was 24.17 ± 0.3 mN/m and the surface tension liquid-gas ([1]; 318.15 K, x1 = 0.2004) was 25.18 ± 0.3 mN/m. It also gave a surface tension liquid-gas ([1]; 318.15 K, x1 = 0.3011) of 26.53 ± 0.3 mN/m, a surface tension liquid-gas ([1]; 318.15 K, x1 = 0.3986) of 28 ± 0.31 mN/m and a surface tension liquid-gas ([1]; 318.15 K, x1 = 0.4989) of 29.33 ± 0.31 mN/m. The surface tension liquid-gas ([1]; 318.15 K, x1 = 0.59) was 30.68 ± 0.32 mN/m, the surface tension liquid-gas ([1]; 318.15 K, x1 = 0.688) was 32.24 ± 0.32 mN/m and the surface tension liquid-gas ([1]; 318.15 K, x1 = 0.7993) was 34.23 ± 0.33 mN/m. For the same molecule, the surface tension liquid-gas ([1]; 318.15 K, x1 = 0.8735) was 36.03 ± 0.34 mN/m, the surface tension liquid-gas ([1]; 318.15 K, x1 = 1) was 42.01 ± 0.37 mN/m and the mass density ([1]; 318.15 K, x1 = 0.0999) was 859.6 ± 0.4 kg/m3. The mass density ([1]; 318.15 K, x1 = 0.1996) was 913 ± 0.4 kg/m3, the mass density ([1]; 318.15 K, x1 = 0.303) was 953.9 ± 0.4 kg/m3 and the mass density ([1]; 318.15 K, x1 = 0.3998) was 983.4 ± 0.4 kg/m3. The mass density ([1]; 318.15 K, x1 = 0.5) was 1010.1 ± 0.4 kg/m3, the mass density ([1]; 318.15 K, x1 = 0.6002) was 1030.9 ± 0.4 kg/m3 and the mass density ([1]; 318.15 K, x1 = 0.7001) was 1047.5 ± 0.4 kg/m3. For the same molecule, the mass density ([1]; 318.15 K, x1 = 0.8) was 1062 ± 0.4 kg/m3, the mass density ([1]; 318.15 K, x1 = 0.8999) was 1077.3 ± 0.5 kg/m3 and the mass density ([1]; 318.15 K, x1 = 1) was 1097.7 ± 0.5 kg/m3.
With `CCO` [ethanol] the surface tension liquid-gas ([2]; 298.15 K) was 22.11 ± 0.31 mN/m, the mass density ([2]; 298.15 K) was 784.7 ± 0.4 kg/m3 and the surface tension liquid-gas ([2]; 308.15 K) was 21.13 ± 0.3 mN/m. It also gave a mass density ([2]; 308.15 K) of 776.2 ± 0.4 kg/m3, a surface tension liquid-gas ([2]; 318.15 K) of 20.48 ± 0.3 mN/m and a mass density ([2]; 318.15 K) of 767 ± 0.4 kg/m3.
